Data as given in patent publication US20210193322A1, “NETWORK METHODS FOR NEURODEGENERATIVE DISEASES” (Genting TauRx Diagnostic Centre SDN BHD, priority 2018, published 2021).

Legend:
AD diagnosed patients = test: Structural correlation network analysis (MRI cortical thickness and surface area correlation matrices, node degree) in AD patients; assay type: in vivo, human
bvFTD = settings: cited from earlier work

SMILES | number of inverse/compensatory non-homologous cortical thickness correlations compared with healthy elderly controls (AD diagnosed patients; 54 AD patients with CDR 0.5 only, baseline and week 65, LMTM 8 mg/day monotherapy, vs 202 healthy elderly, FIGS. 27A-27D) | number of inverse/compensatory non-homologous surface area correlations compared with healthy elderly controls (AD diagnosed patients; 54 AD patients with CDR 0.5 only, baseline and week 65, LMTM 8 mg/day monotherapy, vs 202 healthy elderly, FIGS. 28A-28D) | cortical thickness networks compared with healthy elderly controls (AD diagnosed patients; 96 AD patients (CDR 0.5, 1 or 2), baseline and week 65, LMTM 8 mg/day monotherapy, vs 202 healthy elderly, FIGS. 25A-25D) | surface area networks compared with healthy elderly controls (AD diagnosed patients; 96 AD patients (CDR 0.5, 1 or 2), baseline and week 65, LMTM 8 mg/day monotherapy, vs 202 healthy elderly, FIGS. 26A-26D) | compensatory network correlations (especially non-homologous, positive and inverse correlations) (AD diagnosed patients; summary statement) | cortical thickness correlations, within-lobe (positive) and between-lobe compensatory (inverse) (AD diagnosed patients; week 65 vs baseline, LMTM 8 mg/day monotherapy, 96 AD patients, FIGS. 21A-21B) | surface area correlations, within-lobe (positive) and between-lobe compensatory (inverse) (AD diagnosed patients; week 65 vs baseline, LMTM 8 mg/day monotherapy, 96 AD patients, FIGS. 23A-23B) | effect on cortical thickness structural correlation networks (correlation matrix) (AD diagnosed patients; week 65 vs baseline, LMTM 8 mg/day with symptomatic AD treatments (ach1), 445 AD patients, FIGS. 19A-19B) | effect on non-homologous inter-lobar node degree (cortical thickness and surface area, positive and inverse correlations) (AD diagnosed patients; week 65 vs week 0, LMTM 8 mg/day as add-on, ach1 group, FIGS. 20A-20D) | number of positive and inverse non-homologous cortical thickness correlations (inter-lobar node degree) (AD diagnosed patients; week 65 vs week 0, LMTM 8 mg/day monotherapy, ach0 group, FIGS. 22A-22B) | number of positive and inverse/compensatory surface area correlations (non-homologous inter-lobar node degree) (AD diagnosed patients; week 65 vs week 0, LMTM 8 mg/day monotherapy, ach0 group, FIGS. 24A-24B) | treatment benefit in bvFTD (bvFTD)
CN(C)c1ccc2c(c1)Sc1cc(N(C)C)ccc1N2 [LMTM, leuco-methylthioninium bis(hydromethanesulfonate)] | equivalent to the normal elderly controls | either equivalent to or lower than normal elderly controls | brings the cortical thickness networks closer to normal | normalizes surface area networks | reduce compensatory network correlations | major reduction in thickness correlations | significant reductions in surface area correlations | minimal effect | minimal overall effect | significant reduction | significant reduction | 
CC12CC3CC(C)(C1)CC(N)(C3)C2 [memantine] |  |  |  |  |  |  |  |  |  |  |  | no treatment benefit
